This is an account of results in patent US9115093B2, “Substituted bicyclic dihydropyrimidinones and their use as inhibitors of neutrophil elastase activity” (Boehringer Ingelheim International GmbH, priority 2013, dated 2015).

This test deals with T1, neutrophil elastase (Homo sapiens, UniProt P08246).
T1 sequence (P08246 30-247 limits assumed): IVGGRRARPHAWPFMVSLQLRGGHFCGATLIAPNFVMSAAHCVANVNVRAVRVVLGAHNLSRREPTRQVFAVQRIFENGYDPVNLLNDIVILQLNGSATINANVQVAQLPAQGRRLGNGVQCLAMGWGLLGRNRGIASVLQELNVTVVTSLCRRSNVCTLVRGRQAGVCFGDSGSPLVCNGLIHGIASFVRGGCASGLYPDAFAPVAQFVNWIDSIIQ
In words: Human Neutrophil Elastase Assay. The format is biochemical. The arrangement: purchased Calbiochem 324681. As to conditions: substrate MeOSuc-Ala-Ala-Pro-Val-AMC, pH 7.5, room temperature. The essentials:
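Readout: AMC fluorescence (ex 380, em 460 nm) after 60 min room-temperature reaction with 250 nM MeOSuc-AAPV-AMC, following 15 min compound–enzyme preincubation. Buffer: Tris/NaCl pH 7.5, 0.01% BSA.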
With `N#Cc1ccc(C2C3=C(CCCC3=O)N(c3cccc(C(F)(F)F)c3)C(=O)N2C(=O)NC2CC[S+]([O-])CC2)cc1` (centres unmarked) [Example 71, 4-(4-Cyanophenyl)-2,5-dioxo-N-(1-oxo-hexahydro-1λ^4-thiopyran-4-yl)-1-(3-(trifluoromethyl)phenyl)-1,2,5,6,7,8-hexahydroquinazoline-3(4H)-carboxamide], the half-inhibitory concentration (IC50) was under 1 nM.
In turn, `N#Cc1ccc(C2C3=C(CCCC3=O)N(c3cccc(C(F)(F)F)c3)C(=O)N2C(=O)NC2CCS(=N)(=O)CC2)cc1` (centres unmarked) [Example 72, 4-(4-Cyanophenyl)-2,5-dioxo-N-(1-imino-1-oxo-hexahydro-1λ^6-thiopyran-4-yl)-1-(3-(trifluoromethyl)phenyl)-1,2,5,6,7,8-hexahydroquinazoline-3(4H)-carboxamide] yielded an IC50 of under 1 nM.
In the case of `CNC(=O)N1C(=O)N(c2cccc(C(F)(F)F)c2)C2=C(C(=O)CCC2)C1c1ccc(C#N)cc1C` (centres unmarked) [Example 73, 4-(4-Cyano-2-methylphenyl)-N-methyl-2,5-dioxo-1-(3-(trifluoromethyl)phenyl)-1,2,5,6,7,8-hexahydroquinazoline-3(4H)-carboxamide] it was under 1 nM; in that of `CCNC(=O)N1C(=O)N(c2cccc(C(F)(F)F)c2)C2=C(C(=O)CCC2)C1c1ccc(C#N)cc1C` (centres unmarked) [Example 74, 4-(4-Cyano-2-methylphenyl)-N-ethyl-2,5-dioxo-1-(3-(trifluoromethyl)phenyl)-1,2,5,6,7,8-hexahydroquinazoline-3(4H)-carboxamide], under 1 nM.
The same measure for `CS(=O)(=O)c1cc(C#N)ccc1[C@@H]1C2=C(CCCC2=O)N(c2cccc(C(F)(F)F)c2)C(=O)N1C(=O)NCC#N` [Example 75.1]: under 1 nM; for `CS(=O)(=O)c1cc(C#N)ccc1[C@@H]1C2=C(CCCC2=O)N(c2cccc(C(F)(F)F)c2)C(=O)N1C(=O)NC1CC1` [Example 75.2]: under 1 nM; for `CC(C#N)NC(=O)N1C(=O)N(c2cccc(C(F)(F)F)c2)C2=C(C(=O)CCC2)[C@H]1c1ccc(C#N)cc1S(C)(=O)=O` (some centres unmarked) [Example 75.4]: under 1 nM.
In the case of `CS(=O)(=O)c1cc(C#N)ccc1[C@@H]1C2=C(CCCC2=O)N(c2cccc(C(F)(F)F)c2)C(=O)N1C(=O)NC1COC1` [Example 75.5] it was under 1 nM; in that of `COCCNC(=O)N1C(=O)N(c2cccc(C(F)(F)F)c2)C2=C(C(=O)CCC2)[C@H]1c1ccc(C#N)cc1S(C)(=O)=O` [Example 75.6], under 1 nM; in that of `CS(=O)(=O)c1cc(C#N)ccc1[C@@H]1C2=C(CCCC2=O)N(c2cccc(C(F)(F)F)c2)C(=O)N1C(=O)NC1(C#N)CC1` [Example 75.8], under 1 nM.
`CS(=O)(=O)c1cc(C#N)ccc1[C@@H]1C2=C(CCCC2=O)N(c2cccc(C(F)(F)F)c2)C(=O)N1C(=O)NC1CCOC1` (some centres unmarked) [Example 75.10]: the IC50 is under 1 nM.
In the case of `CS(=O)(=O)c1cc(C#N)ccc1[C@@H]1C2=C(CCCC2=O)N(c2cccc(C(F)(F)F)c2)C(=O)N1C(=O)NC1CC(O)C1` (some centres unmarked) [Example 75.11] it was under 1 nM; in that of `CC(C)(O)CNC(=O)N1C(=O)N(c2cccc(C(F)(F)F)c2)C2=C(C(=O)CCC2)[C@H]1c1ccc(C#N)cc1S(C)(=O)=O` [Example 75.12], under 1 nM; in that of `N#Cc1ccc(C2C3=C(CCCC3=O)N(c3ccnc(C(F)(F)F)c3)C(=O)N2C(=O)NC2CC2)cc1` (centres unmarked) [Example 76, 4-(4-Cyanophenyl)-N-cyclopropyl-2,5-dioxo-1-(2-(trifluoromethyl)pyridin-4-yl)-1,2,5,6,7,8-hexahydroquinazoline-3(4H)-carboxamide], 1.7 nM.
The compound `CNC(=O)N1C(=O)N(c2ccnc(C(F)(F)F)c2)C2=C(C(=O)CCC2)C1c1ccc(C#N)cc1` (centres unmarked) [Example 76.1] came in with a half-inhibitory concentration (IC50) of 4.4 nM.
In the case of `CCNC(=O)N1C(=O)N(c2ccnc(C(F)(F)F)c2)C2=C(C(=O)CCC2)C1c1ccc(C#N)cc1` (centres unmarked) [Example 76.2] it was 1.2 nM; in that of `CC(C)NC(=O)N1C(=O)N(c2ccnc(C(F)(F)F)c2)C2=C(C(=O)CCC2)C1c1ccc(C#N)cc1` (centres unmarked) [Example 76.3], 1.9 nM.

As a reminder, the IC50 is the concentration needed to halve the response being measured. High values mean a need for much substance, low ones inhibition by little substance.
